Experimental findings from publication PMC2810227, “3-O-Methylfunicone, a Selective Inhibitor of Mammalian Y-Family DNA Polymerases from an Australian Sea Salt Fungal Strain” (Marine Drugs, 2009) are described below.

Like-named read-outs stand apart in the source and are kept apart here.

The target in this test is T1, human pol κ (Homo sapiens, UniProt Q9UBT6).
T1 construct: A truncated form of pol κ (residues 1–560) with 6 x His-tags attached at the C-terminus; 6xHis (C); made in house; host or cells: E. coli
T1 sequence (Q9UBT6 1-560): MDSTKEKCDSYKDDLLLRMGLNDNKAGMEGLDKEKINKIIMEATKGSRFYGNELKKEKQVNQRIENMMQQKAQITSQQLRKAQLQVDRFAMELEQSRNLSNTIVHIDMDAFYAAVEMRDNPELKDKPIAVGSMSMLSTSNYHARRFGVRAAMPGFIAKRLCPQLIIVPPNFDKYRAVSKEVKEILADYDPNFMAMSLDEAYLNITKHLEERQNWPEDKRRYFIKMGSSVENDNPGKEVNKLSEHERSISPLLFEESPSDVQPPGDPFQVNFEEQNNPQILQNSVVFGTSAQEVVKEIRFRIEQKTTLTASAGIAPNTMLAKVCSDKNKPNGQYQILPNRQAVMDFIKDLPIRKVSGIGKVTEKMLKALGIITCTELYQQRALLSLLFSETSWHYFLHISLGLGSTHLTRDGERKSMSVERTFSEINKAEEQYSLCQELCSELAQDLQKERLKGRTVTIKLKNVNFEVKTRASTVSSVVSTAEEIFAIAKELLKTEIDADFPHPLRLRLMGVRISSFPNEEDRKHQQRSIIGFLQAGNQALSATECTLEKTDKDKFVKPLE
Put plainly: Kinetic analysis of the inhibition of human pol κ. The class given is biochemical. The settings on record: for Ki: Dixon plot. The source says:
Next, to elucidate the mechanism of inhibition, the extent of inhibition as a function of DNA template-primer or dNTP substrate concentrations was studied (Figure 4). In kinetic analysis, poly(dA)/oligo(dT)18 and dTTP were used as the DNA template-primer and dNTP substrate, respectively. […] When activated DNA and four dNTP substrates were used as the DNA template-primer and dNTP substrate, respectively, the inhibition of human pol κ by compound 1 was competitive with the DNA template-primer and non-competitive with the dNTP substrate (data not shown).
Figure 4. Kinetic analysis of the inhibition of human pol κ by compound 1. (A) Human pol κ activity was measured in the absence (closed square) or presence of 4 μM (closed circle), 8 μM (closed triangle) or 12 μM (closed diamond) compound 1 using the indicated concentrations of the DNA template-primer. (B) Human pol κ activity was assayed with the indicated concentrations of the substrate dTTP in the presence of 4 μM (open circle), 8 μM (open triangle) or 12 μM (open diamond) or in the absence (open square) of compound 1. […] Amount of human pol κ in the assay mixture was 0.05 units.
The reaction mixtures for pol α, pol β, plant pols and prokaryotic pols were described previously; those for pol γ, and pols δ and ɛ were as described by Umeda et al. and Ogawa et al., respectively. The reaction mixtures for pols η, ι and κ were the same as for pol α, and the reaction mixture for pol λ was the same as for pol β. For pols, poly(dA)/oligo(dT)18 (A/T = 2/1) and dTTP were used as the DNA template-primer and nucleotide (i.e., dNTP) substrate, respectively. For HIV-1 reverse transcriptase, poly(rA)/oligo(dT)18 (A/T = 2/1) and dTTP were used as the DNA template-primer and nucleotide substrate, respectively. For TdT, oligo(dT)18 (3′-OH) and dTTP were used as the DNA primer and nucleotide substrate, respectively.
The compounds were dissolved in distilled dimethyl sulfoxide (DMSO) at various concentrations and sonicated for 30 sec. Aliquots of 4 μl sonicated samples were mixed with 16 μl of each enzyme (final amount 0.05 units) in 50 mM Tris-HCl (pH7.5) containing 1 mM dithiothreitol, 50% glycerol and 0.1 mM EDTA, and kept at 0 °C for 10 min. These inhibitor-enzyme mixtures (8 μl) were added to 16 μl of each of the enzyme standard reaction mixtures (final concentration of 50 mM Tris-HCl [pH 7.5], 1 mM dithiothreitol, 1 mM MgCl2, 15% glycerol, 10 μM poly(dA)/oligo(dT)18 and 10 μM [^3H]-dTTP), and incubation was carried out at 37 °C for 60 min, except for Taq pol, which was incubated at 74 °C for 60 min. Activity without the inhibitor was considered 100%, and the remaining activity at each concentration of the inhibitor was determined relative to this value. One unit of pol activity was defined as the amount of enzyme that catalyzed the incorporation of 1 nmol dNTP (i.e., dTTP) into synthetic DNA template-primers in 60 min at 37 °C under the normal reaction conditions for each enzyme.

For the compound `C/C=C/c1occ(C(=O)c2c(OC)cc(OC)cc2C(=O)OC)c(=O)c1OC` [compound 1, 3-O-methylfunicone], the “increase in Michaelis constant (Km), DNA template-primer” value is on record as 295% (4 μM compound), 467% (8 μM compound) and 812% (12 μM compound). Moreover, for the setting “12 μM compound, decreased from 41.7 without compound”, the “Vmax for the dNTP substrate” value is given as 11.1 pmol/h. In addition, the Ki is, setting by setting: (read-out: inhibition constant (Ki) for the DNA template-primer) 1300 nM; (read-out: inhibition constant (Ki) for the dTTP substrate) 4400 nM. Moreover, the “mode of inhibition with the DNA template-primer” value is “competitive” (activated DNA as template-primer, data not shown) and “competitive” (poly(dA)/oligo(dT)18, double reciprocal plots). Moreover, the “mode of inhibition with the dNTP substrate” value was “non-competitive” (dTTP, double reciprocal plots) and “non-competitive” (four dNTP substrates, data not shown). Also, under “unchanged in the presence of 4, 8 and 12 μM compound”, the “apparent maximum velocity (Vmax), DNA template-primer” value is 52.6 pmol/h.
